The results in this text go back to US20100041661A1, “CASPASE INHIBITORS BASED ON PYRIDAZINONE SCAFFOLD” (LG Life Sciences Ltd., priority 2006, published 2010).

Experiment [1] concerns Jurkat cell (ATCC TIB-152). As to the kind of experiment: Fas antibody-induced apoptosis of Jurkat cells, WST-1 method. It counts as cell-based. The note with it: Homo sapiens, apoptosis induced by Fas antibody, alive cells by WST-1. Here is the method:
The […] inhibitory activity of the inhibitors was determined by subjecting Jurkat cell (ATCC TIB-152) to apoptosis using Fas antibody (Upstate Biotech 05-201) and by detecting the color change according to the WST-1 method known in Francoeur A. M. and Assalian A. (1996) Biochemica 3, 19-25 to observe the amount of alive Jurkat cells when the cells were treated by the inhibitor. Spectra MAX 340 Spectrometer of Molecular Device Co. was used at the absorbance wavelength of 440 nm.
(In general: Formazan colour is commonly taken as a measure of viable cells.)

Experiment [2] deals with T1, caspase-8 (Homo sapiens, UniProt Q14790).
T1 construct: p10 and p20 subunits (Thornberry, N. A. et al, Nature, 1992, 356, 768) were expressed in E. coli; made in house; host or cells: E. coli
As to the kind of experiment: Assay for the caspase inhibitory effect (fluorescent substrate AcDEVD-AFC). It counts as biochemical. The note with it: pH 7.5; 2.1 nM caspase-8, 50 μM AcDEVD-AFC, 25° C., pH 7.50; read-out: Caspase-8 Kobs/[I] (converted). Here is the method: Caspase-1 and caspase-8 known as cysteine proteases in the form of α2β2 were expressed, purified, and activated by modifying a method known in Thornberry, N. A. et al, Nature, 1992, 356, 768; Thornberry, N. A. Methods in Enzymology, 1994, 244, 615; Walker, N. P. C. et al. Cell, 1994, 78, 343, and caspase-9 was also purified by a similar method, and the inhibitory activity against them was tested. Briefly describing, p10 and p20 subunits (Thornberry, N. A. et al, Nature, 1992, 356, 768) were expressed in E. coli and purified by nickel column and anionic exchange chromatography to give caspase-1, caspase-8 and caspase-9. The fluorescent substrates AcYVAD-AFC for thus obtained caspase-1, AcDEVD-AFC for caspase-8, and AcLEHD-AFC for caspase-9, were used for determining specific activity of the synthesized inhibitors. The enzyme reaction was carried out at 25° C. with various concentrations of the inhibitors in a buffer solution containing 50 mM HEPES (pH 7.50), 10% (w/v) sucrose, 0.1% (w/v) CHAPS, 100 mM NaCl, 1 mM EDTA, and 10 mM DTT in the presence of 50 μM AcYVAD-AFC for 10 nM caspase-1, 50 μM AcDEVD-AFC for 2.1 nM caspase-8, and 150 μM AcLEHD-AFC for 200 nM caspase-9. The inhibitory constants Ki and Kobs of the inhibitors were determined by measuring the reaction velocity with the time lapse using a fluorescent spectrometer and by obtaining the initial rate constant. Ki was calculated from the Lineweaver Burk Plot, and Kobs from the following Equation 1.
Kobs=−ln(1−At/Aoo)/t [Equation 1]
At means cleavage rate (%) at time t, and
Aoo means the maximum cleavage rate (%).
Spectra MAX GeminiXS Fluorescent Spectrometer of Molecular Device Co. was used at the excitation wavelength of 405 nm and the emission wavelength of 505 nm.

T1 sequence (Q14790 217-374 limits assumed, species assumed): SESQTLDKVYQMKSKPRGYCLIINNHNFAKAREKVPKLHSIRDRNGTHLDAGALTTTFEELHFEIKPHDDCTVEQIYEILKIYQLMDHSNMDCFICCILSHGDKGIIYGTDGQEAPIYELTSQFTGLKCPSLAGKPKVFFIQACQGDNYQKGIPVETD
T1 sequence (Q14790 385-479 limits assumed, species assumed): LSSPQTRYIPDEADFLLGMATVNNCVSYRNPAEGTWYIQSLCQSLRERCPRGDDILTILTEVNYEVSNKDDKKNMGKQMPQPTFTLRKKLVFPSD

A word on the IC50: it is the concentration that gives 50% inhibition. In experiment [1], `CCC(C(=O)NC(CC(=O)O)C(=O)CF)n1nc(C)cc(Cc2ccccc2C(C)(C)C)c1=O` (stereo not drawn) [Example 1, 3-{2-[5-(2-tert-Butyl-benzyl)-3-methyl-6-oxo-6H-pyridazin-1-yl]-butyrylamino}-5-fluoro-4-oxo-pentanoic acid] displayed an IC50 of 140 nM. Also, the kinact/KI in experiment [2] was 91700 M⁻¹ s⁻¹.
The corresponding values for `CCC(C(=O)N[C@@H](CC(=O)O)C(=O)COc1c(F)c(F)cc(F)c1F)n1nccc(Cc2ccccc2C(C)(C)C)c1=O` (stereo partly drawn) [Example 5, (S)-3-{2-[5-(2-tert-Butyl-benzyl)-6-oxo-6H-pyridazin-1-yl]-butyrylamino}-4-oxo-5-(2,3,5,6-tetrafluoro-phenoxy)-pentanoic acid] are 170 nM and 33300 M⁻¹ s⁻¹.
Regarding `Cc1cc(Cc2ccccc2C(C)(C)C)c(=O)n(CC(=O)N[C@@H](CC(=O)O)C(=O)COc2c(F)c(F)cc(F)c2F)n1` [Example 4, (S)-3-{2-[5-(2-tert-Butyl-benzyl)-3-methyl-6-oxo-6H-pyridazin-1-yl]-acetylamino}-4-oxo-5-(2,3,5,6-tetrafluoro-phenoxy)-pentanoic acid], the kinact/KI in experiment [2] was 3330 M⁻¹ s⁻¹.
The molecule `CCC(C(=O)N[C@@H](CC(=O)O)C(=O)COc1c(F)c(F)cc(F)c1F)n1nc(C)cc(Cc2ccccc2C(C)(C)C)c1=O` (stereo partly drawn) [Example 2, (S)-3-{2-[5-(2-tert-Butyl-benzyl)-3-methyl-6-oxo-6H-pyridazin-1-yl]-butyrylamino}-4-oxo-5-(2,3,5,6-tetrafluoro-phenoxy)-pentanoic acid] yielded an IC50 in experiment [1] of 330 nM. In experiment [2], the kinact/KI was 33300 M⁻¹ s⁻¹.
On to `CCC(C(=O)N[C@@H](CC(=O)O)C(=O)COc1c(F)c(F)cc(F)c1F)n1nc(Cc2ccccc2C(C)(C)C)ccc1=O` (stereo partly drawn) [Example 6, (S)-3-{2-[3-(2-tert-Butyl-benzyl)-6-oxo-6H-pyridazin-1-yl]-butyrylamino}-4-oxo-5-(2,3,5,6-tetrafluoro-phenoxy)-pentanoic acid], for which the kinact/KI in experiment [2] was 2830 M⁻¹ s⁻¹.
On the same count and under the same terms, under `Cc1cc(Cc2ccccc2C(C)(C)C)c(=O)n(C(C)C(=O)N[C@@H](CC(=O)O)C(=O)COc2c(F)c(F)cc(F)c2F)n1` (stereo partly drawn) [Example 3, (S)-3-{2-[5-(2-tert-Butyl-benzyl)-3-methyl-6-oxo-6H-pyridazin-1-yl]-propionylamino}-4-oxo-5-(2,3,5,6-tetrafluoro-phenoxy)-pentanoic acid] stands 6670 M⁻¹ s⁻¹.
